From publication PMC11356900, “Synthesis, Structural Properties and Biological Activities of Novel Hydrazones of 2-, 3-, 4-Iodobenzoic Acid” (Molecules, 2024)
Values after ≈ are worked out from the molar mass of the structure shown.

Assays:
[1] = tested on: Candida spp.; experiment: Broth microdilution, summary over reference yeasts; format: cell-based; details: range over the reference Candida spp. strains
Source text: (§1) Procedures of in vitro antimicrobial assays are described in Supplementary Materials.
(§2) 2. Microbiology – in vitro antimicrobial activity assays […]
(§3) using the broth microdilution method according to the European Committee on Antimicrobial Susceptibility Testing (EUCAST) and Clinical and Laboratory Standards Institute guidelines against a panel of reference and clinical or saprophytic strains of mi croorganisms, including the Gram-positive bacteria: Staphylococcus aureus ATCC 43300 (Methi-cillin Resistant S. aureus – MRSA), Staphylococcus aureus ATCC 29213 (Methicillin Susceptible S. aureus – MSSA), Staph-ylococcus epidermidis ATCC 12228, Micrococcus luteus ATCC 10240, Bacillus subtilis ATCC 6633 and Bacillus cereus ATCC 10876), Gram-negative bacteria: Bordetella bronchiseptica ATCC 4617, Escherichia coli ATCC 25922, Klebsiella pneumoniae ATCC 13883, Proteus mirabilis ATCC 12453, Salmonella typhimurium ATCC 14028 and Pseudomonas aeruginosa ATCC 9027, and fungi belonging to yeasts: Candida albicans ATCC 10231, Candida albicans ATCC 2091, Candida parapsilosis ATCC 22019, Candida glabrata ATCC 90030 and Candida krusei ATCC 14243. The microorganisms belonging to ATCC originated from American Type Culture Collection, routinely used for the evaluation of antimicrobials. All the used microbial cultures were first subcultured on nutrient agar or Sabouraud agar at 35°C for 18-24 h or 30°C for 24-48 h for bacteria […]
(§4) The surface of Mueller-Hinton agar (for bacteria) and RPMI 1640 with MOPS (for fungi) were inoculated with the suspensions of bacterial or fungal species. Microbial suspensions were prepared in sterile saline with an optical density of McFarland standard scale 0.5. The samples containing the compounds were dissolved in dimethyl sulfoxide (DMSO).
(§5) Furthermore, the bacterial and fungal suspensions put onto the Petri dishes with solid media containing 2 mg/mL of the tested compounds followed were incubated at 37°C for 24h and 30°C for 48h for bacteria and fungi, respectively.
(§6) The inhibition of microbial growth was estimated comparing with a control culture prepared without any tested sam- […]
(§7) antifungal compounds, respectively.
(§8) Subsequently, MIC (Minimal Inhibitory Concentration) of the compounds was examined by the microdilution broth method, using their two-fold dilutions in Mueller-Hinton broth (for bacteria) and RPMI 1640 broth with MOPS (for fungi) prepared in the 96-well polystyrene plates. The final concentrations of the compounds ranged from 1000 to 0.488 µg/mL. Microbial suspensions were prepared in 0.85% NaCl with an optical density of 0.5 McFarland standard. Next each bacterial or fungal suspension was added per each well containing broth and various concentrations of the exam-ined compounds. After incubation, the MIC was assessed spectrophotometrically as the lowest concentration of the […]
(§9) Appropriate DMSO, growth and sterile controls were carried out. The medium with no tested substances was used as a control The MBC (Minimal Bactericidal Concentration) and MFC (Minimal Fungicidal Concentration) are defined as the lowest concentration of the compounds that is required to kill a particular bacterial or fungal species. The MBC/MFC was determined by removing the culture used for the MIC determination from each well and spotted onto the appro-priate agar medium. The plates were incubated under appropriate conditions for bacteria and fungi. The lowest com-pounds concentration with no visible growth observed was assessed as a bactericidal/fungicidal concentration. All the experiments were repeated three times and the representative data are presented.
(§10) 1. European Committee for Antimicrobial Susceptibility Testing (EUCAST) Determination of minimum inhibitory con-centrations (MICs) of antibacterial agents by broth dilution. EUCAST discussion document E. Dis 5.1. Clin. Microbiol.
(§11) 2. Clinical and Laboratory Standards Institute. Reference method for broth dilution antifungal susceptibility testing of […]

[2] = tested on: Bacillus subtilis ATCC 6633; experiment: Broth microdilution MIC/MBC; details: ATCC6633
[3] = tested on: Staphylococcus aureus ATCC 25923; experiment: Broth microdilution MIC/MBC; details: Staphylococcus aureus, ATCC25923
[4] = tested on: Staphylococcus aureus ATCC 43300; experiment: Broth microdilution MIC/MBC; details: ATCC43300 / MRSA
[5] = tested on: Bordetella bronchiseptica ATCC 4617; experiment: Broth microdilution MIC/MBC; details: ATCC4617
[6] = tested on: Pseudomonas aeruginosa ATCC 9027; experiment: Broth microdilution MIC/MBC; details: ATCC9027
[7] = tested on: Salmonella typhimurium ATCC 14028; experiment: Broth microdilution MIC/MBC; details: Salmonella enterica
[8] = tested on: Staphylococcus epidermidis ATCC 12228; experiment: Broth microdilution MIC/MBC; details: ATCC12228
[9] = tested on: Proteus mirabilis ATCC 12453; experiment: Broth microdilution MIC/MBC; details: ATCC12453
[10] = tested on: Klebsiella pneumoniae ATCC 13883; experiment: Broth microdilution MIC/MBC; details: ATCC13883
[11] = tested on: Bacillus cereus ATCC 10876; experiment: Broth microdilution MIC/MBC; details: Bacillus cereus, ATCC10876
[12] = tested on: Staphylococcus aureus ATCC 29213; experiment: Broth microdilution MIC/MBC; details: ATCC29213
[13] = tested on: Candida glabrata ATCC 90030; experiment: Broth microdilution MIC/MFC; format: cell-based; details: Nakaseomyces glabratus; for MFC: ATCC90030, read-out: MFC; for MIC: ATCC90030, read-out: MIC
Source text: as §1, §2, §3, §4, §5, §6, §7, §8, §9, §10, §11

[14] = tested on: Candida krusei ATCC 14243; experiment: Broth microdilution MIC/MFC; format: cell-based; details: Pichia kudriavzevii; for MFC: ATCC14243, read-out: MFC; for MIC: ATCC14243, read-out: MIC
Source text: as §1, §2, §3, §4, §5, §6, §7, §8, §9, §10, §11

[15] = tested on: Candida albicans ATCC 2091; experiment: Broth microdilution MIC/MFC; format: cell-based; details: for MFC: ATCC2091, read-out: MFC; for MIC: ATCC2091, read-out: MIC
Source text: as §1, §2, §3, §4, §5, §6, §7, §8, §9, §10, §11

[16] = tested on: Candida albicans ATCC 10231; experiment: Broth microdilution MIC/MFC; format: cell-based; details: for MFC: ATCC10231, read-out: MFC; for MIC: ATCC10231, read-out: MIC
Source text: as §1, §2, §3, §4, §5, §6, §7, §8, §9, §10, §11

[17] = tested on: Candida parapsilosis ATCC 22019; experiment: Broth microdilution MIC/MFC; format: cell-based; details: Lodderomyces parapsilosis; for MFC: ATCC22019, read-out: MFC; for MIC: ATCC22019, read-out: MIC
Source text: as §1, §2, §3, §4, §5, §6, §7, §8, §9, §10, §11

[18] = tested on: Micrococcus luteus ATCC 10240; experiment: Broth microdilution MIC/MBC; details: Micrococcus luteus, ATCC10240
[19] = tested on: Escherichia coli ATCC 25922; experiment: Broth microdilution MIC/MBC; details: ATCC25922
[20] = tested on: Gram-positive bacteria; experiment: Broth microdilution, summary over reference Gram-positive bacteria; format: cell-based; details: reference Gram-positive bacteria / studied bacteria
Source text: as §1, §2, §3, §4, §5, §6, §7, §8, §9, §10, §11

[21] = tested on: Gram-positive bacterial strains; parameters: method as in doi:10.14419/ijac.v5i1.7155; details: mainly Gram-positive bacterial strains; cited from earlier work

| Structure (SMILES) | MFC [1] [µg/mL] | MIC [1] [µg/mL] | melting point [°C] | MIC [2] [µg/mL] | MIC [3] [µg/mL] | MIC [4] [µg/mL] | MIC [5] [µg/mL] | MIC [6] [µg/mL] | MIC [7] [µg/mL] | MIC [8] [µg/mL] | MIC [9] [µg/mL] | MIC [10] [µg/mL] | MIC [11] [µg/mL] | MIC [12] [µg/mL] | MFC [13] [µg/mL] | MIC [13] [µg/mL] | MFC [14] [µg/mL] | MIC [14] [µg/mL] | MFC [15] [µg/mL] | MIC [15] [µg/mL] | also measured |
| --- | --- | --- | --- | --- | --- | --- | --- | --- | --- | --- | --- | --- | --- | --- | --- | --- | --- | --- | --- | --- | --- |
| O=C(N/N=C/c1cc(O)ccc1O)c1ccc(I)cc1 [Compound 26, N-[(2,5-dihydroxyphenyl)methylidene]-4-iodobenzohydrazide] | > 1000 | 250 to 1000 (≈ 654 to 2620 µM) | 261 to 265 | 500 (≈ 1310 µM) | > 1000 | 1000 (≈ 2620 µM) | > 1000 | > 1000 | > 1000 | 1000 (≈ 2620 µM) | > 1000 | > 1000 | > 1000 | > 1000 | > 1000 | 1000 (≈ 2620 µM) | > 1000 | 500 (≈ 1310 µM) | > 1000 | 1000 (≈ 2620 µM) | MBC [2]: > 1000 µg/mL; MBC [4]: > 1000 µg/mL; MBC [8]: > 1000 µg/mL; MFC [16]: > 1000 µg/mL; MIC [16]: 500 µg/mL (≈ 1310 µM); MFC [17]: > 1000 µg/mL; MIC [17]: 250 µg/mL (≈ 654 µM); MBC [18]: > 1000 µg/mL; MIC [18]: 500 µg/mL (≈ 1310 µM); MIC [19]: > 1000 µg/mL |
| O=C(N/N=C/c1cc(Br)cc(Br)c1O)c1ccc(I)cc1 [Compound 28, N-[(3,5-dibromo-2-hydroxyphenyl)methylidene]-4-iodobenzohydrazide] | > 1000 | 250 to 1000 (≈ 477 to 1910 µM) | 210 to 211 | > 1000 | > 1000 | > 1000 | > 1000 | > 1000 | > 1000 | > 1000 | > 1000 | > 1000 | > 1000 | > 1000 | > 1000 | 1000 (≈ 1910 µM) | > 1000 | 1000 (≈ 1910 µM) | > 1000 | 1000 (≈ 1910 µM) | antibacterial activity in words [20]: No antimicrobial effect; MFC [16]: > 1000 µg/mL; MIC [16]: 500 µg/mL (≈ 954 µM); MFC [17]: > 1000 µg/mL; MIC [17]: 500 µg/mL (≈ 954 µM); MIC [18]: > 1000 µg/mL; MIC [19]: > 1000 µg/mL |
| O=C(NN=Cc1ccc(F)cc1)c1ccccc1 [N-(4-fluorobenzylidene)benzohydrazide] | – | – | – | – | – | – | – | – | – | – | – | – | – | – | – | – | – | – | – | – | zone of bacterial growth inhibition ZOI [21]: 6–7 mm |
